# Legend:
# [1] = test system: Male Wistar rats; assay: Conditioned avoidance response (CAR) test, Example 1; type: in vivo, rat; conditions: for Suppression of CAR: 20 minutes; for Treatment effect in CAR: FIG. 2
# [2] = test system: social defeat model; conditions: in vivo; cited from earlier work
# [3] = test system: mTOR pathway, including protein kinase Akt and p70S6 kinase; conditions: cited from earlier work
# [4] = test system: pyramidal cells in rat mPFC slices; conditions: lumateperone alone; cited from earlier work
# [5] = test system: schizophrenic patients; conditions: cited from earlier work
# [6] = test system: patients with acute exacerbated schizophrenia; conditions: 60 mg P.O. once daily for up to 28 days, vs placebo; cited from earlier work
# [7] = schizophrenia with co-morbid depression
SMILES,"Suppression of CAR ([1]; risperidone 0.4 mg/kg i.p., vs vehicle, FIG. 1)","Treatment effect in CAR ([1]; risperidone 0.4 mg/kg i.p., 90 minutes)",Effect in the social defeat model [2],Phosphorylation of mTOR pathway proteins [3],NMDA and AMPA receptor-induced currents [4],"Depressive symptoms [5, 7]","Safety profile [5, 7]","Social functioning, positive and negative symptoms, cognition ([5]; schizophrenic patients, at a low striatal D2 receptor occupancy)",Symptoms of emotional experience [6],"Suppression of CAR ([1]; lumateperone 7 mg/kg i.p. (saline), vs vehicle/saline, FIG. 3)","CAR, comparison between groups ([1]; lumateperone 7 mg/kg, 90 minutes, vs lumateperone 3 mg/kg/saline, FIG. 4)","Suppression of CAR ([1]; lumateperone tosylate 3 mg/kg i.p., vs vehicle, FIG. 1)","Suppression of CAR ([1]; lumateperone tosylate 10 mg/kg i.p., vs vehicle, FIG. 1)","Treatment effect in CAR ([1]; lumateperone tosylate 10 mg/kg i.p., 90 minutes)"
Cc1nc2n(c(=O)c1CCN1CCC(c3noc4cc(F)ccc34)CC1)CCCC2 [risperidone],significantly suppressed CAR compared to vehicle,not for the other doses or for risperidone,–,–,–,–,–,–,–,–,–,–,–,–
"CN1CCN2c3c(cccc31)[C@@H]1CN(CCCC(=O)c3ccc(F)cc3)CC[C@@H]12 [lumateperone, 4-((6bR,10aS)-3-methyl-2,3,6b,9,10,10a-hexahydro-1H-pyrido[3′,4′: 4,5]pyrrolo[1,2,3-de]quinoxalin-8(7H)-yl)-1-(4-fluorophenyl)-1-butanone]",–,–,antidepressant-like effects,increases phosphorylation of key proteins in the mTOR pathway,activates both NMDA and AMPA receptor-induced currents,improves the depressive symptoms,placebo-level safety profile and no metabolic changes or extra-pyramidal side effects,"significantly improve social functioning, positive and negative symptoms, as well as impaired cognition",significant and unexpected improvement in symptoms of emotional experience compared to placebo,significantly suppressed CAR compared to vehicle/saline,significantly different than lumateperone (3 mg/kg)/saline,significantly suppressed CAR compared to vehicle,significantly suppressed CAR compared to vehicle,significant treatment effect
